This is an account of results in patent US11723589B2 (The General Hospital Corporation, priority 2010, dated 2023).

The subject of one experiment is Male Sprague-Dawley rats. Nature of the experiment: Arterial blood gas analysis during isoflurane general anesthesia. The class given is in vivo, rat. As to the method:
Arterial Blood Gas and Hemodynamic Recordings. Rats with femoral artery catheters (Charles River Laboratories, Wilmington, Mass.) were placed in the anesthetizing chamber after lateral tail vein IV catheter placement. The isoflurane dose was kept constant at 1.5%. Mean arterial blood pressure and heart rate were measured using a pressure transducer (TruWave, Edwards Life Sciences, Irvine, Calif.) interfaced with a custom-built amplifier (AD620 operational amplifier, Jameco Electronics, Belmont, Calif.). […] Samples were promptly analyzed using CG4+ cartridges in a Vetscan iStat 1 (Abaxis, Union City, Calif.) blood gas analyzer.
To provide a conservative check on the assessments made by the 95% confidence intervals and the parametric tests and non-parametric tests were also used to assess statistical significance. The Mann-Whitney test was used to test the hypothesis that methylphenidate hastens time to emergence from isoflurane general anesthesia, and to test the dose-dependence of methylphenidate on time to righting during continuous isoflurane general anesthesia. A paired t-test was used to test the hypothesis that methylphenidate produces a respiratory alkalosis during isoflurane general anesthesia. The inventors used the two-sided Kolmogorov-Smirnov test with a Bonferonni correction to compare spectra in animals before and after receiving methylphenidate. The inventors considered a result to be statistically significant based on the 95% confidence intervals comparing two groups if zero was not in the interval, based on hypothesis tests if the p-values were less than 0.05 or in the case of the Bayesian analyses, if the relevant posterior probability was greater than 0.95.

Another experiment relates to rats. Nature of the experiment: Restoration of righting and EEG during continuous propofol anesthesia. Particulars: MPH 5 mg/kg IV, continuous propofol infusion. The class given is in vivo, rat. As to the method: For the second experiment, 2 IV catheters were placed and a continuous propofol infusion was started in rats with pre-implanted EEG electrodes. After establishing the minimum plasma concentration of propofol required to maintain loss of righting, the second IV catheter was flushed with NS, and 5 minutes later MPH (5 mg/kg) was administered.

Setting [1] is: arterial blood 15 minutes after methylphenidate, isoflurane 1.5%, n = 6.

For `COC(=O)[C@H](c1ccccc1)[C@H]1CCCCN1` (racemic) [methylphenidate], in the experiment on Male Sprague-Dawley rats (setting [1]), the “P2CO2 after 5 mg/kg IV Methylphenidate (mean)” value is given as 35 mmHg, the “P2O2 after 5 mg/kg IV Methylphenidate (mean)” value turned out to be 241 mmHg and the “pH after 5 mg/kg IV Methylphenidate (mean)” value is recorded as 7.51. In addition, the “calculated increase in alveolar ventilation (VA)” value in the experiment with Male Sprague-Dawley rats (from paCO2 pre/post methylphenidate, assuming no change in baseline metabolism) is listed as 24±6%. Moreover, the “rats with signs of arousal and restoration of righting within 4 min” value with rats was 5/6. In addition, in the experiment with rats (one rat), the “time to restoration of righting in the rat with delayed arousal response” value came out at 25 min.
